{
  "source": "patent US20230132088A1",
  "about": "“DETECTION OF GENE POLYMORPHISMS” (The Board of Trustees of the Leland Stanford Junior …, priority 2020, published 2023)",
  "assay": "Population pharmacokinetic analysis of INH clearance in tuberculosis patients, by predicted NAT2 acetylator type",
  "settings": "human, plasma, INH clearance rate (median), 48 pulmonary TB patients",
  "data": [
    {"smiles": "NNC(=O)c1ccncc1", "note": "[INH, isoniazid]", "values": [
      {"measurement": "clearance", "setting": "predicted fast (rapid) acetylators", "result": 778, "unit": "mL/min"},
      {"measurement": "clearance", "setting": "predicted intermediate acetylators", "result": 683, "unit": "mL/min"},
      {"measurement": "clearance", "setting": "predicted slow acetylators, standardized weight-based dosing", "result": 322, "unit": "mL/min"}
    ]}
  ]
}
